Experimental data from PMC12903857.

Experiments:
Format in all cases: binding
14-3-3σ/C-RAF259 [1] = molecular target: T1, 14-3-3σ/C-RAF259 (Homo sapiens, UniProt P31947); experiment: Fluorescence anisotropy (FA) compound titration; conditions: 10 nM C-RAF259-FAM 10-mer, 5 μΜ 14-3-3σ, overnight; read-out: Compound titrations EC50 value C-RAF259
Experimental: (§1) In analogy to our previous work, two orthogonal assays were used for screening (Figure S2). […] Dose responses of compounds were performed in the absence and presence of the C-RAF259 phospho-peptide to distinguish between neutral binders and cooperative molecular glues. The experiment was performed as a time course, with measurements every 8 h, after an 1 h incubation. Additionally, the compounds were tested in a fluorescence anisotropy (FA) assay in the presence of the 5-carboxyfluorescein-(FAM)-labeled C-RAF259 peptide. […] The full dose–response data for all compounds are available in the SI (Tables S2–S5, Figures S5–S8, Figures S15–S18, Figures S25–S32, Figures S37–S39). The dose–response data from both assays were also visually compared in the form of bar graphs. […] For FA experiments, the EC50 values from the overnight measurement were calculated and plotted as bar graphs showing the […] log EC50 value (pEC50). Compounds acting as MGs were expected to show increases in both types of bar graphs.
(§2) transferred in the assay plates.
(§3) The reacton mixtures were incubated
(§4) dispensed in the assay plates.
(§5) incubaton at room temperature .

14-3-3σ/C-RAF259 [2] = molecular target: T1, 14-3-3σ/C-RAF259; experiment: Intact mass spectrometry assay with C-RAF259 phospho-peptide; parameters: full-length for mass spectrometry and fluorescence anisotropy assays; made in house; host or cells: E. coli Rosetta 2(DE3)pLysS (14-3-3σ); peptides from Elim Biopharmaceuticals; conditions: 1 μM compound, 100 nM 14-3-3σ, 18 µM peptide
Experimental: as §1, §2, §3, §4, §5

14-3-3σ = molecular target: T2, 14-3-3σ (Homo sapiens, UniProt P31947); experiment: Intact mass spectrometry assay, apo (no peptide); parameters: full-length for mass spectrometry and fluorescence anisotropy assays; made in house; host or cells: E. coli Rosetta 2(DE3)pLysS, pPROEX HTb vector; conditions: 1 μM compound, 100 nM 14-3-3σ
T2 sequence (P31947 1-248): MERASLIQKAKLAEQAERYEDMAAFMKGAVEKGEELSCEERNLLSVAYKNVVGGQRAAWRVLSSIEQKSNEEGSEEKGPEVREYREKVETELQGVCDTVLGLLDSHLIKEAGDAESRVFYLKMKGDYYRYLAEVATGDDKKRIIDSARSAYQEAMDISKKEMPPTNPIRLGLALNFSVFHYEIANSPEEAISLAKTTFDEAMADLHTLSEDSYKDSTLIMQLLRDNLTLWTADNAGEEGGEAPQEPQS
Experimental: as §1, §2, §3, §4, §5

Compound | EC50 (14-3-3σ/C-RAF259 [1]) [µM] | % bound, C-RAF259 (11mer), 1h (14-3-3σ/C-RAF259 [2]) [%] | % bound, C-RAF259 (11mer), 8h (14-3-3σ/C-RAF259 [2]) [%] | % bound, C-RAF259 (11mer), 16h (14-3-3σ/C-RAF259 [2]) [%] | % bound, APO, 1h (14-3-3σ) [%] | % bound, APO, 8h (14-3-3σ) [%] | % bound, APO, 16h (14-3-3σ) [%] | % bound, APO, 24h (14-3-3σ) [%] | % bound, C-RAF259 (11mer), 24h (14-3-3σ/C-RAF259 [2]) [%]
O=C(CCl)NCC1CCN(S(=O)(=O)c2ccc(Br)c(F)c2)CC1 [Compound 37] | 5 ± 1 | – | – | – | – | – | – | – | –
O=C(CCl)N1CC[C@]2(CCN(S(=O)(=O)c3ccc(Br)c(F)c3)C2)C1 [Compound 89] | > 250 | 43 | 65.8 | 82 | 5.6 | 14.5 | 36.2 | 53.9 | –
O=C(CCl)N1CC2(CCCN(S(=O)(=O)c3ccc(Br)c(F)c3)C2)C1 [Compound 83] | 5 ± 2 | – | – | – | – | – | – | – | –
O=C(CCl)NCC1CCN(S(=O)(=O)c2ccc3c(c2)OCO3)CC1 [Compound 26] | 26 ± 3 | 4.3 | 11.3 | 22.6 | 0 | 0 | 1.9 | 5.2 | 34.1
O=C(CCl)NCC1CCN(S(=O)(=O)c2cccc(F)c2)CC1 [Compound 16] | > 150 | 3.3 | 8.2 | 18 | 0 | 1 | 1.9 | 2.9 | 32.4
O=C(CCl)NCCCC1CCN(S(=O)(=O)c2ccc(Cl)cc2)CC1 [Compound 13] | > 1000 | 0.9 | 2.9 | 5.6 | 0 | 1.5 | 2.5 | 4.3 | 14.1
O=C(CCl)NCc1ccc(NS(=O)(=O)c2ccc(Br)c(F)c2)cc1 [Compound 73] | > 1000 | 1.9 | 2.9 | 12.1 | 0 | 1.5 | 1.5 | 3.8 | 31
O=C(CCl)NCC1CCN(S(=O)(=O)c2ccc(Cl)nc2)CC1 [Compound 14] | 82 ± 6 | 4.7 | 7.4 | 9.9 | 1.9 | 2.5 | 3 | 15 | 20.9
O=C(CCl)NCC1CCN(S(=O)(=O)C2CCC3(CC2)CC3(F)F)CC1 (stereo not drawn) [Compound 34] | > 1000 | 0.5 | 0.9 | 0.9 | 0 | 0.5 | 0.9 | 0.9 | 3.8
O=C(CCl)NCC1CCN(S(=O)(=O)c2ccc(F)c(F)c2)CC1 [Compound 28] | 88 ± 2 | 4.3 | 15.2 | 27.5 | 1.9 | 4.7 | 6.5 | 9.1 | 40
O=C(CCl)NCC1CCN(S(=O)(=O)c2cccc(C(F)(F)F)c2)CC1 [Compound 17] | > 150 | 1.9 | 3.4 | 6.5 | 0 | 0 | 0.5 | 0.9 | 12.3
O=C(CCl)N1CC2CCC1CC2NS(=O)(=O)c1ccc(Br)c(F)c1 (stereo not drawn) [Compound 61] | 78 ± 7 | 37.1 | 68 | 80.9 | 5.2 | 13.3 | 21.8 | 36.8 | 83.3
O=C(CCl)NCC1CCN(S(=O)(=O)c2ccccc2)CC1 [Compound 10] | 66 ± 4 | 4.7 | 5.6 | 5.7 | 4.7 | 4.7 | 4.7 | 4.7 | 13
COc1ccc(S(=O)(=O)N2CCC(CNC(=O)CCl)CC2)cc1 [Compound 25] | 57 ± 9 | 10.6 | 15 | 27.1 | 0.5 | 1.9 | 7.4 | 13.8 | 44.4
O=C(CCl)NCC1CCN(S(=O)(=O)Cc2ccccc2)CC1 [Compound 6] | > 1000 | 0.9 | 2.9 | 6.5 | 0 | 1 | 4.7 | 4.7 | 7
O=C(CCl)NCC1CCN(S(=O)(=O)Cc2ccc(Cl)cc2)CC1 [Compound 9] | > 1000 | 0 | 0.5 | 2.9 | 0 | 0 | 1.5 | 1.9 | 3.2
O=C(CCl)NCC1CCN(S(=O)(=O)c2ccc(C(F)(F)F)c(F)c2)CC1 [Compound 32] | 4 ± 1 | – | – | – | – | – | – | – | –
O=C(CCl)N1CC2(C1)CN(S(=O)(=O)c1ccc(C(F)(F)F)c(F)c1)CCO2 [Compound 80] | 9 ± 2 | – | – | – | – | – | – | – | –
